Measurements reported in PubChem BioAssay AID2060508 (Molecular Pharmacology Branch, DTP, NCI, 2025).
“And” between values parts separate entries of the source, which are not always exact repeats. Equal entries are not always repeated.

Tested on: 454973-116-R2-J3-PDC spheroids, viability, % test/control
Experiment: Anticancer human tumor 454973-116-R2-J3-PDC patient-derived pancreatic carcinoma cell line growth inhibition [GQUAD]
Details: spheroids with HUVEC and MSC; for viability, T/C: stronger effect = lower value; for IC50: curve of compound
Excerpt: DNA G-quadruplex Stabilizer Agents in Combinations in Complex Spheroids
A high-throughput screen of multi-cell type tumor spheroids was designed to identify active combinations of DNA G-quadruplex stabilizer agents and targeted small molecules. Complex spheroids include a stromal component modeled by human endothelial cells (HUVEC) and fibroblasts modeled by human mesenchymal stem cells (MSCs). The concentration ranges selected for each drug and investigational agent were based upon clinically achievable concentrations if the clinical Cmax of the agent was known.
Compounds. The drugs and investigational agents: pidnarulex (CX-5461; NSC782164), APTO-253 (NSC789042), BRACO-19 (NSC847499), peposertib (NSC802822), ceralasertib (NSC780249), elimusertib (NSC800525), camonsertib (NSC841442), AZD-1390 (NSC803789), olaparib (NSC753686), talazoparib (NSC767125), ART-558 (NSC835418), sotorasib (NSC818433), MRTX-1133 (NSC836407), SN-38 (NSC673596), topotecan (NSC609699), etoposide (NSC141540), doxorubicin (NSC123127), gemcitabine (NSC613327), 5-fluorouracil (NSC19893), paclitaxel (NSC125973), vemurafenib (NSC761431), panobinostat (NSC761190), R-306465 (JNJ-16241199; NSC773264), adavosertib (NSC754352), TP-3654 (NSC805149), carboplatin (NSC241240), KSQ-4279 (NSC840948), and staurosporine (NSC755774) were obtained from the National Cancer Institute (NCI) Developmental Therapeutics Program Chemical Repository (34). The FDA-approved anticancer drug set is available from the NCI Developmental Therapeutics Program. […] The stock solutions were prepared in dimethyl sulfoxide (DMSO, Sigma-Aldrich, St. Louis, MO, cat. D2650) at 800-fold the tested concentration and stored at -70 degrees C prior to their use. All drugs and investigational agents were tested over a range starting from a high concentration at or near the clinical Cmax and decreasing in half-log increments. If the clinical Cmax for an agent had not been determined, the highest concentration tested was 10 microM.
2.3 Cell Culture. All cells were maintained in an incubator at 37 degrees C and 5% CO2 with 95% humidity. The PDC lines were cultured according to standard operating procedures established by the NCI PDMR. All PDCs were thawed and cultured in Matrigel-coated flasks prepared with a working solution of 1X Ham's F-12 nutrient mix, without supplementation (Invitrogen, cat. 11765054), 100 U/mL penicillin-streptomycin (Invitrogen, cat. 15140122), and 2.5% Matrigel (Corning Inc., cat. 354248) for the first three passages. The 857933-349-R-J2-PDC line was cultured in 6C/Colon 1B media, which includes advanced DMEM/F-12 (Thermo Fisher Scientific, cat. 12634028), 10 mM HEPES (Thermo Fisher Scientific, cat. 15630080), 1X GlutaMAX supplement (Thermo Fisher Scientific, cat. 35050061), 0.1 mg/mL primocin (InvivoGen, cat. ant-pm-2), 10% defined fetal bovine serum, heat inactivated (HyClone Laboratories Inc., cat. SH30070.03HI), 50% L-WRN conditioned media (ATCC, cat. CRL-3276), 1.25 mM N-Acetyl-L-cysteine (Sigma-Aldrich, cat. A9165), 10 mM nicotinamide (Sigma-Aldrich, cat. N0636), 1X B-27 supplement (Thermo Fisher Scientific, cat. 17504044), 1X N-2 supplement (Thermo Fisher Scientific, cat. 17502048), 10 microM Y-27632 dihydrochloride (Tocris Bioscience, cat. 1254), and 50 ng/mL human EGF recombinant protein (Thermo Fisher Scientific, cat. PHG0311). The 485176-168-R4-J1-PDC line was cultured in Panc media, which includes all 6C/Colon 1B media components plus 100 ng/mL human FGF-10 (Thermo Fisher Scientific, cat. 100-26), 500 nM SB-431542 (Selleckchem, cat. S1067), and gastrin (Tocris, cat. 3006).
[…]
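Note: spheroids exposed to compounds for seven days.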

Compound | IC50 | viability, T/C (compound 0.0316 µM) | viability, T/C (compound 0.1 µM) | viability, T/C (compound 0.316 µM) | viability, T/C (compound 1 µM) | viability, T/C (compound 3.16 µM) | viability, T/C (compound 10 µM) | viability, T/C (compound 0.000999 µM) | viability, T/C (compound 0.00316 µM) | viability, T/C (compound 0.00999 µM) | viability, T/C (compound 0.0999 µM)
Cc1cccc(N(C)C(=O)C2C(O)CCN2c2nc(C)cc(C(F)(F)F)c2C#N)c1 (configuration not stated) | > 10000 nM | 93.2% and 106% and 100% | 98.7% and 101% and 97.4% | 105% and 106% (2×) | 102% and 93.6% and 108% | 110% and 108% and 113% | 107% (2×) and 101% |  |  |  | 
Cc1[nH]c2ccccc2c1CCNCc1ccc(/C=C/C(=O)NO)cc1 | 75.5 nM and 72.5 nM and 67.7 nM | 87.6% and 82.6% and 84.8% |  | 6.04% and 6.14% and 2.02% |  |  |  | 106% and 102% and 99.1% | 112% and 98.9% and 102% | 103% and 102% and 105% | 37.9% and 37.3% and 32%
Cc1cnc(CNC(=O)c2c(=O)c3ccc(N4CCCN(C)CC4)nc3n3c2sc2ccccc23)cn1 |  | 92.6% [middle of 12 runs] | 82.4% [middle of 12 runs] | 74% [middle of 12 runs] | 72.2% [middle of 12 runs] | 64.6% [middle of 12 runs] |  |  |  |  | 

The next lines start with results.

IC50 | Compound | viability, T/C (compound 0.0316 µM) | viability, T/C (compound 0.1 µM) | viability, T/C (compound 0.316 µM) | viability, T/C (compound 1 µM) | viability, T/C (compound 3.16 µM) | viability, T/C (compound 10 µM) | viability, T/C (compound 0.000999 µM) | viability, T/C (compound 0.00316 µM) | viability, T/C (compound 0.00999 µM) | viability, T/C (compound 0.0999 µM)
< 31.6 nM | CC(=O)O[C@H]1C(=O)[C@@]2(C)[C@H]([C@H](OC(=O)c3ccccc3)[C@]3(O)C[C@H](OC(=O)[C@H](O)[C@@H](NC(=O)c4ccccc4)c4ccccc4)C(C)=C1C3(C)C)[C@]1(OC(C)=O)CO[C@@H]1C[C@@H]2O | 16.1% and 19.8% and 21.1% | 8.55% and 9.04% and 12.4% | 7.38% and 7.58% and 9.89% | 7.17% and 7.18% and 9.08% | 6.82% and 7.18% and 9.43% | 9.29% and 10.2% and 11.2% |  |  |  | 
6250 nM and 5890 nM and 6400 nM | CCCS(=O)(=O)Nc1ccc(F)c(C(=O)c2c[nH]c3ncc(-c4ccc(Cl)cc4)cc23)c1F | 105% and 121% and 109% | 108% and 104% and 96.3% | 120% and 112% and 102% | 111% and 113% and 112% | 115% and 99.8% and 108% | 7.3% and 7.67% and 14.8% |  |  |  | 
148 nM and 176 nM and 124 nM | CC1COCCN1c1cc(-c2ccnn2C)c2ccnc(-c3ccn[nH]3)c2n1 (configuration not stated) | 93.7% and 96.6% and 80.7% | 60.6% and 68% and 55.6% | 29.6% and 31.4% and 26.2% | 26.3% and 24% and 18.6% | 26.5% and 25.6% and 19.4% | 24.5% and 24% and 22.7% |  |  |  | 
< 31.6 nM | Nc1ccn(C2OC(CO)C(O)C2(F)F)c(=O)n1 (configuration not stated) | 19.1% and 19% and 20.8% | 16.1% and 13.3% and 15.5% | 15.3% and 17.1% and 18.8% | 16.3% and 16.7% and 16.6% | 17.3% and 14% and 17.2% | 16.6% and 13.6% and 14.2% |  |  |  | 
